Results: patent US20050191348A1 (priority 2004, published 2005)

How the values were obtained:
[1] = test system: PKC; assay: PKC phosphorylation in PC12 cell lysates, Western blot with p-PKC (pan) antibody; assay type: cell-based, rat; details: PC12, 0.1, 1 and 10 μM, 1 h
Method: (iv) Immunoblot Analyses. For Western blot analyses, attached cells were washed once in cold PBS and then lysed in 1× nonreducing Laemmli buffer followed by boiling for 3-5 min. Protein content was determined using the Bradford method. Equal amounts of protein were separated by SDS-polyacrylamide gel electrophoresis and blotted onto polyvinylidene difluoride (PVDF) membranes (Millipore). Membranes were treated with blocking buffer (5% dry milk in PBS or 5% dry milk, 0.05% Tween 20 (Sigma) in TBS). Primary antibodies were diluted in PBS or in TBS containing 5% BSA, 0.05% Tween 20 and incubated with membranes for 20 h at 4° C., followed by incubation (1 h at room temperature) in dilutions of horseradish peroxidase (HRP)-conjugated secondary antibodies in the same buffers. Following antibody incubations, membranes were washed in 0.5% Tween 20 in PBS or TBS. Detection was achieved using ECL™ Western Blotting Detection Reagent (Amersham, Pharmacia, Little Chalfort Buckinghamshire, UK). Quantification of results was accomplished by measuring the optical density of the labeled bands from the autoradiograms by scanning laser densitometry using the computerized imaging program Bio-ID (Imager, Bio1D software; Vilber Lourmat, Marne La Vallee, France). The values were normalized to β-actin intensity levels.
Since activation of PKC has been shown previously to modulate cell viability, resulting in protection of neuronal cells, it was of interest to investigate the effects of rasagiline on PKC activation. In one experiment, PC12 cells were untreated or treated with various concentrations of rasagiline (0.1, 1 and 10 μM) for 1 hour. […] Phosphorylation of PKC was analyzed in cell lysates by Western blotting and detected with p-PKC (pan) antibody.
The effect of propargylamine on PKC phosphorylation/activation was investigated as described in Example 2 above.

[2] = test system: sAPPα; assay: sAPPα release into medium of PC12 cells; assay type: cell-based, rat; details: PC12, 0.1, 1 and 10 μM, 3 h
Method: (§1) For the experiments, cells were seeded (2×10^6) onto 100-mm plates (for SH-SY5Y cells) or T75 flasks (for PC12 cells) in culture medium supplemented with full serum for 48 h. The cells were replaced with fresh medium containing 0.5% FCS for an additional 24 h (subconfluent culture), and then the experiments were performed in fresh medium containing 0.5% FCS for the indicated time periods at 37° C. After incubation with various drugs, the conditioned media were collected, centrifuged at 3500 g (10 min, 4° C.) to remove cell debris, and the cleared supernatants were concentrated 10-fold by lyophilization.
(vii) Determination of sAPP. […] Immunoreactivity was detected using anti-mouse IgG-conjugated with HRP and an enhanced chemiluminescence method (Amersham, Pharmacia Biotech, UK). Blots were developed for different times to span a linear range of response, and the relative intensity of immunoreactive bands on the exposed films was quantified by computer-assisted densitometry program (Quantity One, Bio-Rad, Hercules, Calif., USA).
We further characterized, in detail, the effect of rasagiline on APP processing and the signaling pathways that are involved. Thus, SH-SY5Y neuroblastoma cells were incubated for 3 h without or with increasing concentrations of rasagiline (0.1, 1 and 10 μM), and sAPPα was measured in the media as described in Materials and Methods. […]

[3] = test system: MAPK; assay: MAPK activation (phospho-p44/42 MAPK immunoblot) in PC12 cells; assay type: cell-based, rat; details: PC12, 0.1, 1 and 10 μM, 0.5 h
Method: (viii) Extracellular signal-regulated kinase (ERK) activity. The kinase activity of the ERKs was measured using the MAPK assay kit (Cell Signaling Technology) according to the manufacturer's protocol. In brief, for kinase activity assays, PC12 cells were grown in 6-well plates (5×10^5 cells/well). Eighteen to twenty-four hours before experiments, the medium was replaced with DMEM with 0.5% FCS and treated as described in the figures. Experimental treatments were performed in 1 ml medium containing 0.5% FCS, with the vehicle or test drugs and/or inhibitors at 37° C., as described in the figures. After treatment, reactions were stopped by placing cells on ice and aspirating the medium. Cells were harvested in 50 mM Tris-HCl, pH 8.0, 150 mM NaCl, 5 mM EDTA, 1 mM DTT, 1% Triton X-100, and protease- and phosphatase-inhibitor cocktails. Protein concentration was determined by the Bradford method. As described previously (Yogev-Falach et al., 2002), each cell lysate, containing 30 μg protein, was separated on 4-12% SDS-polyacrylamide electrophoresis gels, immunoblotted, and identified using phospho-p44/42 MAPK (Thr202/Tyr204) antibody or p44/42 MAPK antibody. Data are representative of three to six independent experiments.
To study the effect of rasagiline on MAPK activation, PC12 cells were treated for 0.5 h with increasing concentrations of rasagiline (0.1, 1 and 10 μM), and quantification of the phospho-MAPK blots were normalized using the total MAPK blots, or PC12 cells were preincubated for 15 min with vehicle alone, or with PD98059 (30 μM) or GF109203X (2.5 μM) and then incubated without or with rasagiline (10 μM) for 0.5 h. Aliquots of cell lysates were then subjected to immunoblot analysis and probed with anti-phospho-MAPK (top blots) and anti-MAPK (bottom blots).
For the effect of propargylamine on MAPK activation, PC12 cells were treated for 0.5 h with increasing concentrations of propargylamine (0.1, 1 and 10 μM). Aliquots of cell lysates were then subjected to immunoblot analysis and probed with anti-phospho-MAPK and anti-MAP kinase. Quantification of the phospho-MAPK were normalized using the total MAPK blots.

[4] = test system: SH-SY5Y neuroblastoma cells; assay: Cell death under serum deprivation (apoptotic cell death detection ELISA), SH-SY5Y; assay type: cell-based, human; details: 24 h serum deprivation, significant at 1 and 10 μM
Method: (ii) Cell culture, viability measurements and experimental treatments. Two different neuronal cell lines were used: the rat PC12 and the human neuroblastoma SH-SY5Y cells.
SH-SY5Y neuroblastoma cells were plated in 100-mm culture dishes and cultured in Dulbecco's modified Eagle's medium (DMEM; 4500 mg/l glucose), containing 10% fetal calf serum (FCS) and a mixture of 1% penicillin/streptomycin/nystatin.
(§2) Cell cultures were incubated at 37° C. in a humid 5% CO2-95% air environment. For cell viability assays, cells were treated with various drugs in serum free media containing 0.1% BSA.
(iii) Measurement of cell death.
(§3) In order to test cell viability, PC12 cells and SH-SY5Y neuroblastoma cels were incubated under serum deprivation and were untreated or treated with rasagiline (0.1. 1 or 10 μM) for 24 hours.
In order to test cell viability, PC12 cells and SH-SY5Y neuroblastoma cels were incubated under serum deprivation and were untreated or treated with propargylamine (0.1. 1 or 10 μM) for 24 hours.

[5] = test system: PC12 cells; assay: Cell death under serum deprivation (apoptotic cell death detection ELISA), PC12; assay type: cell-based, rat; details: PC12, 24 h serum deprivation, significant at 1 and 10 μM
Method: Two different neuronal cell lines were used: the rat PC12 and the human neuroblastoma SH-SY5Y cells.
PC12 cells, originated from rat pheochromocytoma, were grown to confluence in T75 flasks containing DMEM (1000 mg/l glucose) and supplemented with 5% FCS, 10% horse serum, and a mixture of 1% of penicillin/streptomycin/nystatin.
as §2, §3

[6] = test system: sAPPα; assay: sAPPα release into medium of SH-SY5Y neuroblastoma cells; assay type: cell-based, human; details: SH-SY5Y, 0.1, 1 and 10 μM, 3 h, versus untreated cells
Method: as §1
(vii) Determination of sAPP. Protein concentrations of cell lysates were assayed using Bradford reagent (Sigma Chemical). Equal amounts of volumes of conditioned medium, standardized to lysate protein, were subjected to […], using either the MAbs 22C11 or 6E10 in 50 mM Tris-HCl, pH 7.4, 150 mM NaCl, containing 0.05% Tween 20 and 1% BSA. Immunoreactivity was detected using anti-mouse IgG-conjugated with HRP and an enhanced chemiluminescence method (Amersham, Pharmacia Biotech, UK). Blots were developed for different times to span a linear range of response, and the relative intensity of immunoreactive bands on the exposed films was quantified by computer-assisted densitometry program (Quantity One, Bio-Rad, Hercules, Calif., USA).
It was of interest to determine whether rasagiline and other propargylamine-containing drugs also regulate APP processing. For this purpose, SH-SY5Y neuroblastoma cells were incubated for 3 h without or with 1 μM of various drugs (TV3326 and its S-isomer TV3279, rasagiline and its S-isomer TVP1022, selegiline, aminoindan), and sAPPα was measured in the media as described in Materials and Methods.
We further characterized, in detail, the effect of rasagiline on APP processing and the signaling pathways that are involved. Thus, SH-SY5Y neuroblastoma cells were incubated for 3 h without or with increasing concentrations of rasagiline (0.1, 1 and 10 μM), and sAPPα was measured in the media as described in Materials and Methods.
For the sAPPα release, SH-SY5Y neuroblastoma cells or PC12 cells were incubated for 3 h without or with increasing concentrations of propargylamine (0.1, 1 and 10 μM), and sAPPα was measured in the media as described in Materials and Methods.

## C#CCN [propargylamine]
[1]
  PKC phosphorylation: significant, dose-dependent increase in PKC phosphorylation
[2]
  sAPPα released into the medium: significant, dose-dependent increase in sAPPα
[3]
  MAPK phosphorylation: induced MAPK phosphorylation
[4]
  cell death induced by serum deprivation: significantly reduced cell death
[5]
  cell death induced by serum deprivation: significantly reduced cell death
[6]
  sAPPα released into the medium: significant, dose-dependent increase in sAPPα
